Source: ChEMBL document CHEMBL5325468, “Scaffold hopping derived novel benzoxazepinone RIPK1 inhibitors as anti-necroptosis agents” (Bioorg Med Chem, 2023)
The source made the active and inactive calls. The calls are words filed in the database; no cut-off is given here.

What was measured:
[1] = system: HT-29; assay: Anti-necroptotic activity against TSZ induced necroptosis in human HT-29 cells preincubated for 12 hrs followed by TSZ addition by CellTiter-Glo luminescent cell viability assay; format: functional, cell-based
[2] = Cytotoxicity against human HT-29 cells assessed as reduction in cell viability; format: toxicity, cell-based
[3] = molecular target: T1, Receptor-interacting serine/threonine-protein kinase 1 (Homo sapiens, UniProt Q13546); assay: Binding affinity to RIPK1 (unknown origin)
T1 sequence (Q13546 whole entry): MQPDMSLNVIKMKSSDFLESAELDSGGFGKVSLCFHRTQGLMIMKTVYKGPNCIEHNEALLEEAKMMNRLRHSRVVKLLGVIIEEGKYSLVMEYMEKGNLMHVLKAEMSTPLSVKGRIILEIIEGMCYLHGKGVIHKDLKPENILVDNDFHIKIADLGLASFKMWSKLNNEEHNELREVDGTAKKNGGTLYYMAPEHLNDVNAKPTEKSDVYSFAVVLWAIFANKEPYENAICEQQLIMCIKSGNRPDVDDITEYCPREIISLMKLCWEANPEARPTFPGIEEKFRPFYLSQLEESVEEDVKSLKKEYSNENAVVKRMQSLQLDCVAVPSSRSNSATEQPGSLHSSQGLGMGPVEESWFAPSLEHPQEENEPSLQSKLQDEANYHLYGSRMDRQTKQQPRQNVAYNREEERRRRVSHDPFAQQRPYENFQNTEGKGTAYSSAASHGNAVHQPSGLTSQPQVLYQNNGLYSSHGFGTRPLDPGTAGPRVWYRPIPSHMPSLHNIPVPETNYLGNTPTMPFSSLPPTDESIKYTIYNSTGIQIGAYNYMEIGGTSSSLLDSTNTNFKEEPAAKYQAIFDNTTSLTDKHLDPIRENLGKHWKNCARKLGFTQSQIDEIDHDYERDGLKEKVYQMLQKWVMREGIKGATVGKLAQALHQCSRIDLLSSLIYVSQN

[4] = species on record: Mus musculus; assay: Protection against TNF-induced SIRS in C57BL/6J mouse assessed as reduction in body temperature loss preincubated for 1 hr followed by mTNF-alpha addition measured after 6 hrs […]; format: functional, organism-based; conditions: time 7.0 hrs
[5] = system: Mus musculus; assay: Protection against mTNF-alpha induced SIRS in C57BL/6J mouse assessed as increase in survival rate at 20 mg/kg preincubated for 1 hr followed by mTNF-alpha addition measured upto 60 hrs; format: functional; conditions: time <= 61 hrs
[6] = system: U-937; assay: Anti-necroptotic activity against TSZ induced necroptosis in human U-937 cells preincubated with compound followed by TSZ addition for 12 hrs; format: functional, cell-based
[7] = system: HT-29; assay: Anti-necroptotic activity against TSZ induced necroptosis in human HT-29 cells incubated for 12 hrs; format: functional, cell-based
[8] = system: HT-29; assay: Anti-necroptotic activity against TCZ induced necroptosis in human HT-29 cells incubated for 16 hrs; format: functional, cell-based
[9] = molecular target: T2, Receptor-interacting serine/threonine-protein kinase 3 (Homo sapiens, UniProt Q9Y572); assay: Binding affinity to RIPK3 (unknown origin)
Target sequence in this assay (Q9Y572 whole entry): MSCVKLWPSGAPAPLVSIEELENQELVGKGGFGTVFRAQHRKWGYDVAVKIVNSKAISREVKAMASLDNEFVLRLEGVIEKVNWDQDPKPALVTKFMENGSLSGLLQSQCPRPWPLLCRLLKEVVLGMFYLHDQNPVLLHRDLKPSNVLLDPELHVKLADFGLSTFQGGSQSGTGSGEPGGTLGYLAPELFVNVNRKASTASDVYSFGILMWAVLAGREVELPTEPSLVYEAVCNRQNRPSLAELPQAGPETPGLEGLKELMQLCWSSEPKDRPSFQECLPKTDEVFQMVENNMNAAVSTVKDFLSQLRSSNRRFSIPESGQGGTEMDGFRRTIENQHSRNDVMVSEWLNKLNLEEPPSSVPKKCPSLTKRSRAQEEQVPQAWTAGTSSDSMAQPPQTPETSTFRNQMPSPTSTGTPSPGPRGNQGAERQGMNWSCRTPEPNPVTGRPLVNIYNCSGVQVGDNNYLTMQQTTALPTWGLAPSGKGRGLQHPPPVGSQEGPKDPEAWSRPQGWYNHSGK

[10] = species on record: Homo sapiens; assay: Selectivity ratio of Kd for RIPK3 (unknown origin) to Kd for RIPK1 (unknown origin)
[11] = system: Mus musculus; assay: Protection against mTNF-alpha induced SIRS in C57BL/6J mouse assessed as increase in survival rate at 10 mg/kg preincubated for 1 hr followed by mTNF-alpha addition measured upto 60 hrs; format: functional; conditions: time <= 61 hrs
[12] = system: Mus musculus; assay: Protection against mTNF-alpha induced SIRS in C57BL/6J mouse assessed as increase in survival rate at 5 mg/kg preincubated for 1 hr followed by mTNF-alpha addition measured upto 60 hrs; format: functional; conditions: time <= 61 hrs
[13] = system: Mus musculus; assay: Protection against mTNF-alpha induced SIRS in C57BL/6J mouse assessed as increase in survival rate at 2.5 mg/kg preincubated for 1 hr followed by mTNF-alpha addition measured upto 60 hrs; format: functional; conditions: time <= 61 hrs
[14] = molecular target: T3, Receptor-interacting serine/threonine-protein kinase 1 (Homo sapiens) (UniProt Q13546); assay: Inhibition of RIPK1 phosphorylation in TSZ induced human HT-29 cells at 100 nM incubated for 2 to 6 hrs by immunoblotting analysis; format: cell-based; conditions: time 2-6 hrs
T3 sequence (whole entry): T1 sequence (Q13546 whole entry)

[15] = molecular target: T4, Mixed lineage kinase domain-like protein (Homo sapiens) (UniProt Q8NB16); assay: Inhibition of MLKL phosphorylation in TSZ induced human HT-29 cells at 100 nM incubated for 2 to 6 hrs by immunoblotting analysis; format: cell-based; conditions: time 2-6 hrs
T4 sequence (whole entry): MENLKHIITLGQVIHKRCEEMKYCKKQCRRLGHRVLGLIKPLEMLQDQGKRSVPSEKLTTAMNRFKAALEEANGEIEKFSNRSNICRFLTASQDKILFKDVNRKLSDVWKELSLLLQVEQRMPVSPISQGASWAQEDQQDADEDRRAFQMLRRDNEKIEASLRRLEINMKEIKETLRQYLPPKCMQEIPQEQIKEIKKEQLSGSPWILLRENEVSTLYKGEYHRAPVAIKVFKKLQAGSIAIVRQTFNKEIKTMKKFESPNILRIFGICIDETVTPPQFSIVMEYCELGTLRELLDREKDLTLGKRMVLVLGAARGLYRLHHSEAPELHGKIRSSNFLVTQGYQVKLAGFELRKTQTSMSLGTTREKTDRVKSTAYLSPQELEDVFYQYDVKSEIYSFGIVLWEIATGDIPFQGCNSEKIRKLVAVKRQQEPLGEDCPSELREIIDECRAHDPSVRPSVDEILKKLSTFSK

[16] = molecular target: T3, Receptor-interacting serine/threonine-protein kinase 1 (Homo sapiens); assay: Inhibition of RIPK1 phosphorylation in TSZ induced human HT-29 cells incubated for 6 hrs by immunoblotting analysis; format: cell-based; conditions: dose 25-100 nM
[17] = molecular target: T4, Mixed lineage kinase domain-like protein (Homo sapiens); assay: Inhibition of MLKL phosphorylation in TSZ induced human HT-29 cells incubated for 6 hrs by immunoblotting analysis; format: cell-based; conditions: dose 25-100 nM
[18] = system: HT-29; assay: Inhibition of TSZ induced necrosomes formation in human HT-29 cells at 100 nM incubated for 6 hrs by Western blotting analysis; format: functional, cell-based
[19] = molecular target: T2, Receptor-interacting serine/threonine-protein kinase 3; conditions: HT-29, dose 100.0 nM, time 2-6 hrs
Target sequence in this assay (Q9Y572 whole entry, looked up): as the sequence (Q9Y572 whole entry) above
Description: Inhibition of RIPK3 phosphorylation in TSZ induced human HT-29 cells at 100 nM incubated for 2 to 6 hrs by immunoblotting analysis

[20] = molecular target: T2, Receptor-interacting serine/threonine-protein kinase 3; conditions: HT-29, dose 25-100 nM, time 6.0 hrs
Target sequence in this assay (Q9Y572 whole entry, looked up): as the sequence (Q9Y572 whole entry) above

| Structure (SMILES) | EC50 [1] [µM] | CC50 [2] [µM] | also measured |
| --- | --- | --- | --- |
| CN1C(=O)[C@@H](NC(=O)c2cc3cccc(-c4cccc(F)c4)c3[nH]2)COc2ccccc21 | 0.096 | > 100 | – |
| Cc1ccc(-c2cccc3cc(C(=O)N[C@H]4COc5ccccc5N(C)C4=O)[nH]c23)cc1 | 1.25 | > 100 | – |
| Cc1ccc(-c2cccc3cc(C(=O)N[C@H]4COc5ccccc5N(C)C4=O)[nH]c23)cc1C | 1.67 | > 100 | – |
| Cc1ccc(C)c(-c2cccc3cc(C(=O)N[C@H]4COc5ccccc5N(C)C4=O)[nH]c23)c1 | 2.06 | > 100 | – |
| CN1C(=O)[C@@H](NC(=O)c2cc3cccc(-c4cccc(-c5ccccc5)c4)c3[nH]2)COc2ccccc21 | > 10 | > 100 | – |
| CN1C(=O)[C@@H](NC(=O)c2cc3cccc(-c4ccccc4C(F)(F)F)c3[nH]2)COc2ccccc21 | 0.163 | > 100 | – |
| COc1ccc(-c2cccc3cc(C(=O)N[C@H]4COc5ccccc5N(C)C4=O)[nH]c23)cc1 | 3.8 | > 100 | – |
| CN1C(=O)[C@@H](NC(=O)c2cc3cccc(-c4ccccc4F)c3[nH]2)COc2ccccc21 | 0.0323 | > 100 | Kd [3]: 0.19 µM |
| CN1C(=O)[C@@H](NC(=O)c2cc3cccc(-c4cc(F)ccc4F)c3[nH]2)COc2ccccc21 | 0.0885 | > 100 | Kd [3]: 0.19 µM |
| Cc1ccc(-c2cccc3cc(C(=O)N[C@H]4COc5ccccc5N(C)C4=O)[nH]c23)c(C)c1 | 4.36 | > 100 | – |
| Cc1cccc(-c2cccc3cc(C(=O)N[C@H]4COc5ccccc5N(C)C4=O)[nH]c23)c1C | 0.302 | > 100 | – |
| Cc1cccc(C)c1-c1cccc2cc(C(=O)N[C@H]3COc4ccccc4N(C)C3=O)[nH]c12 | 1.48 | > 100 | – |
| CN1C(=O)[C@@H](NC(=O)c2cc3cccc(-c4cccc(F)c4F)c3[nH]2)COc2ccccc21 | 0.145 | > 100 | Kd [3]: 0.26 µM |
| Cc1ccccc1-c1cccc2cc(C(=O)N[C@H]3COc4ccccc4N(C)C3=O)[nH]c12 | 0.0454 | > 100 | Kd [3]: 0.27 µM |
| CN1C(=O)[C@@H](NC(=O)c2cc3cccc(-c4ccc5ccccc5c4)c3[nH]2)COc2ccccc21 | 18.1 | > 100 | – |
| CN1C(=O)[C@@H](NC(=O)c2cc3cccc(-c4ccc(-c5ccccc5)cc4)c3[nH]2)COc2ccccc21 | 0.438 | > 100 | – |
| CN1C(=O)[C@@H](NC(=O)c2cc3cccc(-c4ccc(F)cc4F)c3[nH]2)COc2ccccc21 | 0.392 | > 100 | Kd [3]: 0.2 µM |
| CN1C(=O)[C@@H](NC(=O)c2cc3cccc(-c4ccc(F)cc4)c3[nH]2)COc2ccccc21 | 0.356 | > 100 | – |
| CN1C(=O)[C@@H](NC(=O)c2n[nH]c(Cc3ccccc3)n2)COc2ccccc21 [GSK2982772] | 0.0041 | – | Activity [4]: Active; Activity [5]: 90% |
| Cc1cccc(-c2cccc3cc(C(=O)N[C@H]4COc5ccccc5N(C)C4=O)[nH]c23)c1 | 0.271 | > 100 | – |
| CN1C(=O)[C@@H](NC(=O)c2cc3cccc(-c4ccccc4-c4ccccc4)c3[nH]2)COc2ccccc21 | > 10 | > 100 | – |
| COc1cccc(-c2cccc3cc(C(=O)N[C@H]4COc5ccccc5N(C)C4=O)[nH]c23)c1 | 0.128 | > 100 | – |
| CN1C(=O)[C@@H](NC(=O)c2cc3cccc(-c4c(F)cccc4F)c3[nH]2)COc2ccccc21 | 2.17 | > 100 | – |
| CN1C(=O)[C@@H](NC(=O)c2nnc(Cc3ccccc3)[nH]2)COc2ccccc21 [GSK2982772] | – | > 50 | – |
| COc1ccccc1-c1cccc2cc(C(=O)N[C@H]3COc4ccccc4N(C)C3=O)[nH]c12 | 0.775 | > 100 | – |
| CN1C(=O)[C@@H](NC(=O)c2cc3cccc(-c4ccccc4)c3[nH]2)COc2ccccc21 | 0.0162 | > 100 | Activity [6]: Dose-Dependent Effect; Activity [7]: Dose-Dependent Effect; Activity [8]: Active; Kd [9]: 2.4 µM; Kd [3]: 0.19 µM; Selectivity ratio [10]: 8; Activity [11]: 100%; Activity [12]: 100%; Activity [13]: 75%; inhibition [14]: Active; inhibition [15]: Active; inhibition [16]: Dose-Dependent Effect; inhibition [17]: Dose-Dependent Effect; inhibition [18]: Active; Activity [4]: Active; inhibition [19]: Active; inhibition [20]: Dose-Dependent Effect |
| CN1C(=O)[C@@H](NC(=O)c2cc3cccc(-c4ccc(F)c(F)c4)c3[nH]2)COc2ccccc21 | 0.129 | > 100 | – |
| CN1C(=O)[C@@H](NC(=O)c2cc3cccc(-c4cccc5ccccc45)c3[nH]2)COc2ccccc21 | 0.956 | > 100 | – |
| CN1C(=O)[C@@H](NC(=O)c2cc3cccc(-c4ccc(C(F)(F)F)cc4)c3[nH]2)COc2ccccc21 | 3.85 | > 100 | – |
| CN1C(=O)[C@@H](NC(=O)c2cc3cccc(-c4cccc(C(F)(F)F)c4)c3[nH]2)COc2ccccc21 | 2.06 | > 100 | – |
